By GI50 is commonly meant the concentration that inhibits growth by half. What is called inhibition is the share of the control response that was lost under treatment.

Assay [1] concerns non-MYCN-amplified neuroblastoma cells (SK-N-F1, SK-N-RA, SK-N-AS). Briefly: Assay 5A neuroblastoma cell growth (WST-1), non-MYCN-amplified. The assay is classed as cell-based. The conditions noted are these: Homo sapiens, SK-N-AS. How it is done: (§1) FIG. 6: A-B) Neuroblastoma cell lines with (SK-N-DZ, Kelly and IMR-32) or without (SK-N-F1, SK-N-RA and SK-N-AS) MYCN-amplification were exposed to different concentrations of Example 1, Example 2 and control compound, respectively, for 48 hours. Cell growth and viability was estimated by measuring metabolic activity. C) Growth of TGR-1 (wt), HO15.19 (MYC knockout) and HOmyc3 (MYC reconstituted HO15.19) Rat1 fibroblasts, as measured by the WST-1 assay after treatment with Example 1. Data are shown as mean±standard deviation of 3-5 biological experiments, each with 3 technical repeats.
(§2) Assay 5A: Neuroblastoma Cell Growth
(§3) Neuroblastoma cell lines with (SK-N-DZ, Kelly and IMR-32) or without (SK-N-F1, SK-N-RA and SK-N-AS) MYCN-amplification were exposed to different concentrations of example compounds for 48 hours. Cell growth and viability was estimated by measuring metabolic activity by incubating cells in triplicates with WST-1 (Roche) in medium at 37° C. and 5% CO2 for 2 hours after which absorbance was measured with an Omega Fluostar (BMG Labtech) in a 96 well plate format.

The test system of assay [2] is MYCN-amplified neuroblastoma cells (SK-N-DZ, Kelly, IMR-32). Briefly: Assay 5A neuroblastoma cell growth (WST-1), MYCN-amplified. Format: cell-based. The conditions noted are these: Homo sapiens. How it is done:
as §1, §2, §3

The target of a further assay is T1, MYCbHLHZip (Homo sapiens, UniProt P01106).
T1 construct: An amino coupling procedure was used to immobilize MYCbHLHZip protein on a CM5 sensor chip
T1 sequence (P01106 368-449 limits assumed): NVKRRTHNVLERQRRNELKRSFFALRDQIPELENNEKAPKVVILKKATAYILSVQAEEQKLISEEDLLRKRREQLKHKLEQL
Briefly: Assay 2B MYC SPR assay. The assay is classed as binding. As to conditions: equilibrium binding experiments. How it is done: FIG. 3: A) SPR assay to determine affinity of Example 1 to MYC. MYC bHLHZip protein was immobilized by aminocoupling on a CM5 sensor chip. Example 1 was injected at various concentrations in a kinetic experiment. The reference surface was subtracted from the analyte surface to generate a sensorgram. […] B) Four MYC equilibrium binding experiments with Example 1 summarized in an equilibrium binding plot. […] Equilibrium binding experiments of MYC with Example 2 and control compound (non-binder) were plotted as well. Assay 2B. MYC SPR Assay To analyze the direct binding of compounds to MYC, the direct binding of compounds to MYC was detected by surface plasmon resonance (SPR) as described above (Biological example 1—Assay 1B). An amino coupling procedure was used to immobilize MYCbHLHZip protein on a CM5 sensor chip (GE Healthcare) resulting in immobilization levels of approximately 800 respectively 1000 RU. The compounds were injected at different concentrations, one at a time, over the surface for 50-80 seconds with a flow rate of 30 μl/min. Afterwards the compounds were allowed to dissociate for 240 seconds in running buffer (137 mM NaCl, 2.7 mM KCl, 10 mM Na2HPO4, 1.8 mM KH2PO4, 0.005% Tween-20, 1% DMSO, pH 7.4). To remove all remaining analyte the surface was regenerated with 2M Urea for 30 seconds and thereafter 1M NaCl, 2.7 mM KCl, 10 mM Na2HPO4, 1.8 mM KH2PO4, 1% DMSO, pH 7.4 for 30 seconds. Sensorgrams were generated by subtraction of the reference (blank immobilized) surface. Binding responses were related to respective compounds' Rmax. Rmax is the maximum response of a compound when it binds with a 1:1 stochiometry to the protein; Rmax=(MW analyte/MW ligand)×immobilized ligand level on the chip (RU) x stoichiometry (1:1). Kinetic experiments were carried out where recombinant MYC bHLHZip was immobilized on the chip and different concentrations of Example 1 were injected as above. […] Example 2-6 were analyzed for their MYC binding properties by equilibrium binding experiments as described for example 1.
A general note: SPR reads the build-up and loss of mass on a sensor chip optically.

The test system of assay [3] is Tgr and H0Myc3 Rat1 fibroblast cells. Briefly: Assay 5B Tgr cell growth (WST-1), MYC expressing. The assay is classed as cell-based, rat. As to conditions: Tgr/H0Myc3 vs H015.19. How it is done:
as §1
Assay 5B: Tgr Cell Growth
Tgr cells were treated at 37° C. and 5% CO2 at 48 hours with Example and Example 2. H015.19 is a MYC null rat cell line derived from Tgr1 (parental cells), while H0Myc3 cells were generated from the MYC null cells by reconstitution of a MYC gene(Mateyak, M. K., Obaya, A. J., Adachi, S. & Sedivy, J. M. Phenotypes of c-Myc-deficient rat fibroblasts isolated by targeted homologous recombination. Cell Growth Differ 8, 1039-1048 (1997)).
For orientation: Tetrazolium dyes change colour on reduction, which living cells bring about.

For assay [4], the target named is T2, MYC:MAX (MYC-GLuc-C + MAX-GLuc-N) in HEK293 cells (Homo sapiens, UniProt P01106).
T2 construct: expressed in transfected cells; host or cells: HEK293 (also COS-7)
T2 sequence (P01106 whole entry): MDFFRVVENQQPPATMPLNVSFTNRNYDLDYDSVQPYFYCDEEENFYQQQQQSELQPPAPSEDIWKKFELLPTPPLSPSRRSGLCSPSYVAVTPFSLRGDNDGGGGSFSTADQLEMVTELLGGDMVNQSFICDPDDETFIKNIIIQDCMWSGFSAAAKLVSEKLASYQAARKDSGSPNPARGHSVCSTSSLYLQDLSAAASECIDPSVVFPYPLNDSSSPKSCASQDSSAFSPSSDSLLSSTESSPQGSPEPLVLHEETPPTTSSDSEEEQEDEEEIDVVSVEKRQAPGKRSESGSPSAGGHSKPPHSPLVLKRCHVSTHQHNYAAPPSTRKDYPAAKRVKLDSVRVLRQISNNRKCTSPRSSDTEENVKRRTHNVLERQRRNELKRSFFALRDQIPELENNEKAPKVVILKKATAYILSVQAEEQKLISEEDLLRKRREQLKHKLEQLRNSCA
The assay can be described thus: Assay 3C GLuc complementation assay. Format: cell-based. As to conditions: HEK293. How it is done: FIG. 4: A) Endogenous MYC:MAX (upper panel) and FRA1:JUN (lower panel) interactions as visualized as fluorescent red dots by isPLA. Nuclei were counterstained with DAPI (blue). Cells were treated with 10 μM of indicated compounds for 16 hours and subjected to isPLA using pairs of MYC and MAX and of FRA1 and JUN antibodies, respectively. As negative control, primary antibody pairs but only one oligo-conjugated secondary antibody was used. B) Quantification of MYC:MAX and C) FRA1:JUN isPLA, representing an average number of nuclear dots per cell from three microscopic fields normalized to corresponding values for DMSO-treated cells. […] 1st-4th lanes from top; coimmunoprecipitated MAX, immunoprecipitated MYC, total levels of MAX and ACTIN, respectively, as determined by western blot analysis. E) MYC:MAX GLuc assay in cells. […] 24 hours later cells were treated with […] of Example 1, Example 2 and control compound for 16 hours and thereafter analyzed in a dual luciferase assay. The ratio of Gaussia/Firefly luciferase luminescence were calculated and normalized to DMSO-treated cells.
The protein fragment complementation assay using the Gaussia luciferase (GLuc) has been described (Remy, I. & Michnick, S. W. A highly sensitive protein-protein interaction assay based on Gaussia luciferase. Nat Methods 3, 977-979, doi:10.1038/nmeth979 (2006)). […] 24 hours later cells were treated with compound or DMSO. After another 17 hours the cells were harvested and lyzed in passive lysis buffer (Promega) supplemented with complete protease inhibitor (Roche). After 60 min incubation at room temperature 20 μM D-luciferin was added (substrate of Firefly luciferase) and luminescence was measured in a Lumat LB9501 (Berthold) or OmegaFluostar (BMG Labtech) luminometer. Directly after, the Gaussia luciferase substrate Coelenterazine (Promega) was added to a final concentration of 20 μM and the luciferase activity was measured. The ratio between Gaussia and Firefly luciferase values were calculated and normalized to DMSO-treated control cells.

Molecules are shown by their SMILES. Where a name gives a salt, the structure may show the parent alone.

For the compound `CCOc1ccc2nc3cc(/N=N/c4ccc(O)c(CN(C)CCN(C)C)c4)ccc3c(N)c2c1` [Example 9, 4-[(E)-(9-amino-7-ethoxy-acridin-3-yl)azo]-2-[[2-(dimethylamino)ethyl-methyl-amino]methyl]phenol], the GI50 in assay [1] (second run) was determined as 11 µM; in assay [2] (second run), 6 µM.

On to `CCOc1ccc2nc3cc(/N=N/c4ccc(O)c(CN(C)C)c4)ccc3c(N)c2c1` [Example 12, 4-[(E)-2-(9-amino-7-ethoxyacridin-3-yl)diazen-1-yl]-2-((dimethylamino)methyl)phenol], for which, in assay [2] (second run), growth was halved (GI50) at 25 µM.

`CCOc1ccc2nc3cc(/N=N/c4ccc(O)c(CO)c4)ccc3c(N)c2c1` [Example 10, 4-[(E)-2-(9-amino-7-ethoxyacridin-3-yl)diazen-1-yl]-2-(hydroxymethyl)phenol] returned a GI50 in assay [2] (second run) of 15 µM.

For the compound `CCOc1ccc2nc3cc(/N=N/c4c(C)cc(O)cc4C)ccc3c(N)c2c1` [Example 3, 4-((9-amino-7-ethoxyacridin-3-yl)diazenyl)-3,5-dimethylphenol hydrate], the “Binding relative to Rmax” value at MYCbHLHZip worked out at 1.5 Response Units. In addition, the GI50 in assay [1] (second run) was more than 25 µM; in assay [2] (second run) it was 2 µM.

Take `CCOc1ccc2nc3cc(/N=N/c4cc(C)c(O)cc4C)ccc3c(N)c2c1` [Example 2, 4-((9-amino-7-ethoxyacridin-3-yl)diazenyl)-3,6-dimethylphenol]: on MYCbHLHZip, the “Binding relative to Rmax” value is 1.2 Response Units. For the same compound, the “discrimination between cells dependent on MYC status” value in assay [3] is reported as “discriminated between cells dependent on MYC status”. Moreover, the GI50 in assay [1] (48 h, first run) is 12.5 µM; in assay [1] (second run), 10 µM; in assay [2] (first run, 48 hours), 4 µM; in assay [2] (second run), 2.5 µM. In assay [4], the inhibition at 10 µM is 65%.

For the compound `CCOc1ccc2nc3cc(/N=N/c4ccc(O)c(CNCCN(C)C)c4)ccc3c(N)c2c1` [Example 8, 4-[(E)-(9-amino-7-ethoxy-acridin-3-yl)azo]-2-[[2-(dimethylamino)ethylamino]methyl]phenol hydrochloride], the GI50 in assay [1] (second run) was 10 µM; in assay [2] (second run) it was 4 µM.

Take `CCOc1ccc2nc3cc(/N=N/c4cc(C)c(O)c(C)c4)ccc3c(N)c2c1` [Example 6, 4-((9-amino-7-ethoxyacridin-3-yl)diazenyl)-2,6-dimethylphenol]: the “Binding relative to Rmax” value on MYCbHLHZip came to 0.8 Response Units. The results for the GI50 in assay [1] (second run) and in assay [2] (second run) were more than 25 µM and 1 µM, respectively.

These data come from patent US11896589B2, “Diazinyl amino acridines and medical uses thereof” (MyCural Therapeutics AB, priority 2018, dated 2024).
